The values below come from patent US20050014690A1, “Styryl acrylonitrile compounds and their use to promote myelopoiesis” (priority 2001, published 2005).

“Also recorded” adds a separate entry of the source.

In data set [1] the test system is normal bone marrow cells. In words: CFU-GEMM colony assay, normal bone marrow, compound present for 14 days. The format is cell-based, human. Here is the method:
Treatment of normal bone marrow in culture with CR4. The CFU-GEMM assay was performed according to Fauser and Messner (Blood, 52(6) 1243-8,1978) and Messner and Fausser (Blut 41(5) 327-33, 1980) with some variations. In brief, heparinized bone marrow cells were layered over Percoll (1.077 gm/ml) and centrifuged at 400 g at 4° C. for 10 minutes to remove neutrophils and RBCs. The fractionated BM cells at 2×10^5 cells/ml were cultured in IMDM containing 0.9% (vol/vol) methylcellulose supplemented with 30% FCS or normal human plasma, a cocktail of cytokines containing G-CSF (10 ng/ml), IL-3 (40 U/ml), MGF (50 ng/ml), Erythropoietin (2u/ml) or TPO (10 ng/ml) and 5×10^−5M μ-2-mercaptoethanol. CR4 was added to the cells in concentrations indicated in FIG. 1 and the culture mixture was plated in 1 ml volumes into 35 mm petri dishes and incubated at 37° C., 5% CO2 in a humidified atmosphere. All cultures were evaluated at 14 days for the number of BFU-E colonies (defined as aggregates of more than 500 hemaglobinized cells or, 3 or more erythroid subcolonies), CFU-C colonies (defined as granulocyte or monocyte-macrophage cells or both), and CFU-GEMM colonies (a mixed population comprising of all elements). All control samples in this and other examples were treated with the matching concentration of the solvent (DMSO) for the compounds in the same medium or in the case of Example 21, PBS, as indicated. CFU-C stimulation with CR4 dose response. Bone marrow cells were prepared as in Example 15. CR4 was added to the cells at 10 or 20 μM. The culture mixture was plated in 1 ml volumes into 35 mm petri dishes and incubated at 37° C., 5% CO2 in a humidified atmosphere. All cultures were evaluated at 14 days for the number of CFU-C colonies (defined as granulocyte or monocyte-macrophage cells or both). […] Stimulation of CFU-C colony formation by CR11. Bone marrow cells were prepared as in Example 15. CR11 was added to the cells at 10 or 20 μM. The culture mixture was plated in 1 ml volumes into 35 mm petri dishes and incubated at 37° C., 5% […] in a humidified atmosphere. All cultures were evaluated at 14 days for the number of CFU-C colonies. […] CFU-C stimulation with CR19 dose response. Bone marrow cells were prepared as in Example 15. The culture mixture was plated in 1 ml volumes into 35 mm petri dishes and incubated at 37° C., 5% CO2 in a humidified atmosphere. All cultures were evaluated at 14 days for the number of BFU-E and CFU-C colonies.

The test system of data set [2] is CD34+ multipotent stem cells. In words: CFU-C colony formation from CD34+ selected stem cells. The class given is cell-based, human.
Data set [3] concerns normal bone marrow cells. In words: CFU-C colony formation after short high dose exposure (2.5-5 hours), wash-out, 14 day culture. The class given is cell-based, human. Here is the method:
Stimulation of CFU-C colony formation with high dose CR4 for 2.5 hours. Bone marrow cells were layered over Percoll and centrifuged at 400 g at 4° C. for 10 minutes to remove neutrophils and RBCs. The cells were resuspended at 1×10^6/ml in complete medium with or without 50 μM CR4. The cells were incubated with the compound for two and a half hours at 37° C., 5% CO2. At the end of this period the cells were thoroughly washed in medium to remove CR4 and then cultured at 2×10^5 cells/ml in IMDM containing 0.9% (vol/vol) methylcellulose supplemented with 30% FCS or normal human plasma, and a cocktail of cytokines containing G-CSF (10 ng/ml), IL-3 (40 U/ml,), MGF (50 ng/ml), Erythropoietin or TPO and 5×10^−5M μ-2-mercaptoethanol. The culture mixture was plated in 1 ml volumes into 35 mm petri dishes and incubated at 37° C., 5% CO2 in a humidified atmosphere. All cultures were evaluated at 14 days for the number of CFU-C colonies. […] Stimulation of CFU-C colony formation with high dose CR4 for 2.5 and 5 hours. Bone marrow cells were prepared and treated as in Example 19, except exposure times of 2.5 and 5 hours were evaluated. The culture mixture was plated in 1 ml volumes into 35 mm petri dishes and incubated at 37° C., 5% CO2 in a humidified atmosphere. All cultures were evaluated at 14 days for the number of CFU-GM colonies (defined as granulocyte or macrophage cells or both). […] Stimulation of CFU-C colony formation with high dose CR4—two independent bone marrow samples (A&B). Bone marrow cells were prepared and treated as in Example 19, except that CR4 concentrations of 25 and 50 μM were evaluated. The culture mixtures was plated in 1 ml volumes into 35 mm petri dishes and incubated at 37° C., 5% CO2 in a humidified atmosphere. All cultures were evaluated at 14 days for the number of CFU-C colonies.

The test system of a further data set is mice. In words: Peripheral white blood cell count in mice. As to conditions: SCI mouse model; similar kinetics to G-CSF treated mice. The format is in vivo. As to the method:
Promotion of peripheral white blood cell count by CR11. Mice were injected daily with CR11. 250 μl of 400 μM CR11 was injected in PBS. Controls were injected with matching concentrations of CR11 solvent (DMSO) in PBS, or recombinant human G-CSF. After 14 and 17 days blood peripheral blood samples were taken and white blood cell counts determined. Results from each group were averaged.

The next data set deals with transformed cell. In words: Transformed cell growth. The class given is cell-based.
Data set [4] concerns cells of the myeloid lineage. In words: Promotion of myelopoiesis (general statement). Conditions: in vitro, ex vivo and in vivo.

As to `N#C/C(=C\C=C\c1ccc(O)c(O)c1)C(=O)NCc1ccccc1` [CR4, (E,E)-2-(Benzylaminocarbonyl)-3-(3,4-dihydroxystyryl)acrylonitrile], the CFU-C colony formation result in the data set with normal bone marrow cells [1] (10 μM, 14 days) is on record as “significantly stimulated; also recorded: significantly increased”; with normal bone marrow cells [1] (20 μM, 14 days), “equivalent to the control”; in the data set on normal bone marrow cells [3] (5 μM (so in the source), five hours exposure, FIG. 6), “increased significantly”; in the data set on normal bone marrow cells [3] (5 μM (so in the source), two and a half hours exposure, FIG. 6), “increased significantly”; in the data set on normal bone marrow cells [3] (25 μM, five hours exposure, bone marrow sample A, FIG. 7A), “increased significantly”; in the data set with normal bone marrow cells [3] (50 μM, five hours exposure, bone marrow sample A, FIG. 7A), “increased significantly”. The CFU-C colony formation entry is listed as “increased significantly” in the data set with normal bone marrow cells [3] (50 μM, five hours exposure, other bone marrow sample, FIG. 7B); “increased significantly” in the data set on normal bone marrow cells [3] (50 μM, two and a half hours exposure, FIG. 5). Moreover, the BFU-E colony formation entry in the data set with normal bone marrow cells [1] (10 μM, 14 days, FIG. 1) is “some inhibition”. For the same compound, the “toxicity to normal bone marrow cells” value in the data set with normal bone marrow cells [1] (14 days, until concentrations of 20 μM or greater) is recorded as “minimal toxicity”. For the same compound, in the data set with normal bone marrow cells [1] (concentrations from about 0.6 to 10 μM, 14 days, FIG. 1), the CFU-C colony numbers entry is given as “stimulated”. Also, the “toxicity upon normal bone marrow” value in the data set with normal bone marrow cells [1] (doses up to 5 μM, 14 days, FIG. 1) is given as “negligible toxicity”. In addition, the “number of CFU-GM or CFU-C colonies” value in the data set on normal bone marrow cells [1] (in vitro assays of human bone marrow cell growth, continual exposure for 14 days, about 1-20 μM) is “effective in increasing”. Further, in data set [2] (concentrations from 2.5-7.5 μM, 14 days, FIG. 2), the “formation of CFU-C colonies from CD34+ stem cells” value is on record as “significantly increased”. Besides, the “myeloproliferation with purified CD34+ and hematopoietic stem cells” value in data set [2] (short-term CFU-GEMM assay, FIG. 12) was “can be induced”. The “myelopoiesis when the cells are cultured” value in the data set with normal bone marrow cells [3] (25-50 μM for 2-5 hours) was “increased myelopoiesis”. The “other normal bone marrow cells” value in the data set on normal bone marrow cells [3] (same doses (25-50 μM) over the same period (2-5 hours)) is listed as “relatively unaffected”. Further, the “white blood cells in the peripheral blood” value with mice is listed as “Increased numbers”. Besides, the transformed cell growth entry in the data set with transformed cell is “do not promote”. Also, the promoting myelopoiesis result in data set [4] was “capable of promoting myelopoiesis”.
